Experimental data: patent US10639305B2, “Liquid preparation comprising pimobendan” (Boehringer Ingelheim Vetmedica GmbH, priority 2006, dated 2020)
In brackets after ≈: the same amount, converted by molar mass.

Assays:
physchem = format: physicochemical
Experimental: Saturated solubility of pimobendan was investigated at 20 to 25% (w/v) of HPβCD in 10 mM phosphate buffer pH 7.0. The study was carried out on three different batches of HPβCD and each solution tested in duplicate (see FIG. 3). The solutions were prepared using the following method: • a) Approximately 3 ml of the solution under test was placed in a 7 ml glass vial with a magnetic stirring bar. • b) An excess of pimobendan was added. The sample was placed in an ultrasonic bath and sonicated for 5 min. to ensure an excess of pimobendan was present and more added if required. • c) The samples were placed in a water bath at 25° C. and stirred for at least 16 hours. • d) The samples were filtered using 0.2 μm PVDF syringe filter. • e) The samples were assayed by HPLC.
An isotonic solution was required for the formulation. […] Sodium chloride was added to increase the osmolality to 303 mOsm/Kg. Saturated solubility of pimobendan 0.75 mg/ml at 24% (w/v) HPβCD were investigated and results were compared with those formulations that were not supplemented with sodium chloride.

[1] = cited from earlier work
[2] = Saturated solubility of pimobendan at 10 to 40% (w/v) HPβCD at pH 3, 5 and 7; format: physicochemical; conditions: HPβCD 10 to 40% (w/v), pH 3, 5, 7, 25° C.
Experimental: Kleptose® HP (Roquette, France) was used as HPβCD of pharmaceutical grade. […] The solutions were buffered with a sodium phosphate solution. The sample solutions were prepared using the following method: • a) Approximately 3 ml of the solution under test was placed in a 7 ml glass vial with a magnetic stirring bar. • b) The pH was adjusted with hydrochloric acid • c) An excess of pimobendan was added.

## COc1ccc(-c2nc3ccc(C4=NNC(=O)CC4C)cc3[nH]2)cc1 (stereo not shown) [pimobendan, 4,5-dihydro-6-[2-(4-methoxyphenyl)-1H-benzimidazol-5-yl]-5-methyl-3(2H)-pyridazinone]
physchem; 25 °C, pH 7, aqueous with cosolvent or surfactant or cyclodextrin, thermodynamic from solid, saturated solubility (amount of soluble pimobendan)
  solubility: ~1230 µg/mL (≈ 3.68 mM)
physchem; pH 7
  saturated solubility (amount of soluble pimobendan): about 0.71 mg/ml
[1]
  solubility at pH 7: about 0.1 mg per 100 ml
[2]
  solubility at a certain HPβCD concentration, compared between pH values: lower at pH 7 than at pH 3, but higher than at pH 5
